Key:
[1] = tested on: colitis induced by TNBS in rats; assay: Colitis induced by TNBS in rats; type: in vivo, rat; conditions: for Weight of the colon: 48 hours after TNBS; for Weight of the colon / Myeloperoxidase activity / iNOS activity / Macroscopic damage (MDS): mean ± SD; for Myeloperoxidase activity / iNOS activity: colon tissue; for Macroscopic damage (MDS): score 0-10
Source text: The combined capability of some of the compounds of the invention to inhibit both iNOS and the synthesis of TNFα has led to their activity being checked in an experimental model of colitis caused by a chemical hapten, trinitrobenzene-sulphonic acid (TNBS), which can bind to the tissue proteins and stimulate cell-mediated immunity. The intrarectal administration of TNBS in association with ethanol causes acute inflammation characterised by extensive ulceration and necrosis.
A distal colitis was therefore induced in the rat by intrarectal instillation of TNBS (40 mg/kg) dissolved in 50% ethanol (0.5 ml/rat). The drugs were administered orally twice a day on days −2; −1; 0; +1 and the animals were killed 48 hours after the administration of TNBS.
The parameters examined were: total weight of the colon (g), macroscopic tissue damage “score”, measurement of the tissue myeloperoxidase (MPO) activity, which is a marker of the infiltration of the neutrophiles, and measurement of the iNOS activity (pmoles/g tissue/min.).
The macroscopic score (MDS) was taken on about 10 cm of colon in accordance with the following arbitrary scale:
The tissue MPO measurement was performed according to Velgara et al., JPET 1994. The measurement of the tissue nitrites was performed by applying the method described above for the chondrocytes to the supernatant fluid of the tissue homogenate.
Compound I-4, administered in doses of 5, 10 and 20 mg/kg, and compound I-11 were examined, by administering them orally, in comparison with sulphasalazine (250 mg/kg) and 5-aminosalicylic acid (5-ASA) (100 mg/kg), 2 drugs which are widely used in the treatment of ulcerative colitis.

plasma TNFα = assay: Plasma TNFα concentration in rats after stimulation with LPS (endotoxic shock); type: in vivo, rat; conditions: for TNFα (ng/ml ± SD): plasma 90 minutes after challenge
Method: c) The immunosuppressive activity of Compound I-4 was evaluated in an in vivo test in the rat, in which a lipopolysaccharide (LPS) of bacterial origin, injected i.p. at a dose of 6 mg/kg, induced a shock characterised by urgent diarrhoea accompanied by a large increase in the plasma TNFα concentration.
Blood was taken from the animals which were killed 90 minutes after the challenge and the concentration of TNFα in the plasma was determined by Elisa (Amersham Kit cod. RPN2734).

[2] = tested on: formation of NO, measured as NO2− (nitrites); assay: Inhibition of NO (nitrite) formation in rabbit joint chondrocytes stimulated by IL-1β; type: cell-based; conditions: Oryctolagus cuniculus, Chondrocyte, IL-1β 1 ng/ml, 48 hours, NO determined as nitrites
Method: (§1) a) The activity in inhibiting the formation of NO, measured as NO2^− (nitrites), PGE2, and neutral protease, was investigated in vitro on culture broths of rabbit joint chondrocytes stimulated by cytokine IL-1β (1 ng/ml) for 48 hours. For the preparation of the chondrocytes, the method described by Berenbaum et al [FEBS Letters 340, 51-55 (1994)] was followed. Briefly, fragments of cartilage removed under sterile conditions from the heads of rabbit shoulder, hip and knee joints were chopped finely and digested at 37° C. by hyaluronidase, trypsin and collagenase solutions, giving rise, after filtration on sterile gauze and centrifuging at 600×g and suitable dilution with 10% DMEM-FCS, to a concentration of approximately 1×10^5 cells per well. The cells were kept in these conditions until confluence (about 15 days), the broth being changed every 3 days. At this point, the products under test, dissolved in the medium, were added to each test sample and, after 20 minutes, 350 μl IL-1β was added in order to have a final concentration of 1 ng/ml. The duration of the stimulation was 48 hours at 37° C. (incubation air-CO2 7%). Measurement of the nitrites, as described by Green et al. [Anal. Biochem. 126, 131-138 (1982)], and of the PGE2s by RIA measurement, was then performed on the cell supernatant fluid. The measurement of the neutral proteases was performed in the cell supernatant fluid containing the p-aminophenyl mercury acetate (APMA) activator with the use of azocoll as the substrate and with incubation at 37° C. for 17 h as described by Chavira et al. [Anal. Biochem. 136, 446-450 (1984)]. In order to evaluate the direct inhibitory effect of the compounds under test on the hydrolytic activity of the cell supernatant fluid, they were added to the supernatant fluid containing the proteases induced by IL-1β and already activated by AMPA.
(§2) The results obtained are shown in Table 3, in which the IC50, that is, the concentration (micromolar) of antagonist which can inhibit the formation of nitrites, PGE2s, and neutral proteases, respectively, by 50% relative to the control group, that is, to the cells stimulated with IL-1β but without the addition of antagonists, is given for some of the compounds of the invention already given by way of example in Table 2.

[3] = tested on: neutral proteases (metalloproteases); assay: Inhibition of neutral proteases (metalloproteases) in supernatant of IL-1β-stimulated rabbit joint chondrocytes, azocoll substrate; type: biochemical; conditions: IL-1β 1 ng/ml, 48 hours, APMA-activated supernatant, read-out: MP (metalloproteases) IC50
Method: as §1, §2

formation of PGE2 = assay: Inhibition of PGE2 formation in rabbit joint chondrocytes stimulated by IL-1β (RIA); type: cell-based; conditions: Oryctolagus cuniculus, Chondrocyte, IL-1β 1 ng/ml, 48 hours
Method: as §1, §2

[4] = 50 μg/kg ICV + LPS 6 mg/kg I.P.

IC50 [2]: 6.6 µM
IC50 [3]: 6.6 µM
melting point: 190.7 to 191.4 °C
IC50 (formation of PGE2): 3.3 µM
SMILES: CCCCCNC(=S)Nc1ccc(NC(C)=N)cc1 [Compound I-4, N-[4-(N-acetamidine)phenyl]-N′-pentyl Thiourea]
Weight of the colon ([1]; 5 mg/kg orally twice a day): 2.2 ± 0.2 g
Myeloperoxidase activity ([1]; 5 mg/kg orally twice a day): 5.5 ± 1.4 UMPO/g/min
iNOS activity ([1]; 5 mg/kg orally twice a day): 131.7 ± 91.9 pmol/g/min
Macroscopic damage (MDS) ([1]; 5 mg/kg orally twice a day): 5.0 ± 0.9
Weight of the colon ([1]; 10 mg/kg orally twice a day): 2.1 ± 0.3 g
Myeloperoxidase activity ([1]; 10 mg/kg orally twice a day): 5.0 ± 1.7(*) UMPO/g/min
iNOS activity ([1]; 10 mg/kg orally twice a day): 98.6 ± 60.0 pmol/g/min
Macroscopic damage (MDS) ([1]; 10 mg/kg orally twice a day): 4.4 ± 0.8(*)
Weight of the colon ([1]; 20 mg/kg orally twice a day): 2.0 ± 0.2 g
Myeloperoxidase activity ([1]; 20 mg/kg orally twice a day): 5.1 ± 1.2(*) UMPO/g/min
iNOS activity ([1]; 20 mg/kg orally twice a day): 61.5 ± 31.4 pmol/g/min
Macroscopic damage (MDS) ([1]; 20 mg/kg orally twice a day): 3.5 ± 0.8(*)
reduction of macroscopic damage ([1]; doses of 10 and 20 mg/kg): about 50%
reduction of the increase in iNOS activity induced by TNBS ([1]; doses of 10 and 20 mg/kg): 50%
reduction of the increase in tissue MPO activity induced by TNBS ([1]; doses of 10 and 20 mg/kg): 40%
Inhibition (%) of plasma TNFα (plasma TNFα; [4]): 96.2%
TNFα (ng/ml ± SD) (plasma TNFα; [4]): 2.3 ± 1.2 ng/mL
TNFα (ng/ml ± SD) (plasma TNFα; 10 mg/kg IV + LPS 6 mg/kg I.P.): 12.9 ± 7.2 ng/mL
TNFα (ng/ml ± SD) (plasma TNFα; 20 mg/kg OS + LPS 6 mg/kg I.P.): 30.6 ± 1.0 ng/mL
inhibition at 10 mg/kg (plasma TNFα; Rattus norvegicus, 10 mg/kg IV + LPS 6 mg/kg I.P.): 78.9%

From patent publication US7560591B2, “Benzamidine derivatives having anti-inflammatory and immunosuppressive activity” (Rotta Research Laboratorium S.p.A., priority 2001, dated 2009)
